Assay results published in patent US9394282B2, “Pyrazole carboxamides as Janus kinase inhibitors” (Merck Sharp & Dohme Corp., priority 2011, dated 2016).
pIC50: −log10 of the molar value.

Key:
JAK2 = JAK2 (Homo sapiens (Human), UniProt O60674); assay: Jak biochemical HTRF assay, JAK2; settings: recombinant purified GST-tagged catalytic domain, HTRF format
Description: (§1) Jak Biochemical HTRF Assay Protocol
(§2) Subsequent reagent additions employed an Agilent Bravo.

JAK1 = JAK1 (Homo sapiens (Human), UniProt P23458); assay: Jak biochemical HTRF assay, JAK1; settings: recombinant purified GST-tagged catalytic domain; HTRF format; [ATP] 31.8 μM
Description: as §1, §2

Sequence of JAK2 (O60674 849-1124): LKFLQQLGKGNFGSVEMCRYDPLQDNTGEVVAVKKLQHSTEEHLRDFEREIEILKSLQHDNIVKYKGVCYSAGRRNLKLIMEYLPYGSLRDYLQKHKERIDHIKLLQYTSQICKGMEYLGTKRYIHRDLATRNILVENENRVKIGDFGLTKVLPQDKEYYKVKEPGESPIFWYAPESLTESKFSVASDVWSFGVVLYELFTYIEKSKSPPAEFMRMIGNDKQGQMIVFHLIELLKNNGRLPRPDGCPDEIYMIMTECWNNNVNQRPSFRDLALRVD
Sequence of JAK1 (P23458 875-1153): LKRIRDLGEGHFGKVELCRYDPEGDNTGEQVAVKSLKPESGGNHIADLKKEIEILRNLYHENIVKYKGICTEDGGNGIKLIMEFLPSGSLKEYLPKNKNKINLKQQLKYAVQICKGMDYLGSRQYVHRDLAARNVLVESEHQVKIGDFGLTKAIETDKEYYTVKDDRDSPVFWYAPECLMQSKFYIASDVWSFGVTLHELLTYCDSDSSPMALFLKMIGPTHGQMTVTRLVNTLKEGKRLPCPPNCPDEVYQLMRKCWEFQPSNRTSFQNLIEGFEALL

| Structure (SMILES) | pIC50 (JAK2; [ATP] […]) | pIC50 (JAK1) | pIC50 (JAK2; [ATP] 8.5 μM) |
| --- | --- | --- | --- |
| CC(C)(COC(=O)N1CC[C@@H](C#N)[C@H](n2cc(C(N)=O)c(Nc3ccc(F)cc3)n2)C1)n1cccn1 (mixture of isomers) [Example 5-92, 2-methyl-2-(1H-pyrazol-1-yl)propyl (3S,4Rand 3R, 4S)-3-{4-carbamoyl-3-[(4-fluorophenyl)amino]-1H-pyrazol-1-yl}-4-cyanopiperidine-1-carboxylate] | 6.42 | 7.57 | – |
| N#C[C@@H]1CN(Cc2cccnn2)CC[C@H]1n1cc(C(N)=O)c(Nc2ccc(F)cc2)n1 (racemic) [Example 6-22, 1-[(3R,4R and 3S,4S)-3-cyano-1-(pyridazin-3-ylmethyl)piperidin-4-yl]-3-[(4-fluorophenyl)amino]-1H-pyrazole-4-carboxamide] | – | 7.72 | 6.66 |
| CN(C)CC(C)(C)COC(=O)N1CC[C@@H](C#N)C(n2cc(C(N)=O)c(Nc3ccc(F)cc3)n2)C1 (mixture of isomers) [Example 5-75, 3-(dimethylamino)-2,2-dimethylpropyl (3S,4R and 3R,4S)-3-{4-carbamoyl-3-[(4-fluorophenyl)amino]-1H-pyrazol-1-yl}-4-cyanopiperidine-1-carboxylate] | – | 7.80 | 6.35 |
| CC(OC(=O)N1CC[C@@H](n2cc(C(N)=O)c(Nc3ccc(F)cc3)n2)[C@H](C#N)C1)C(F)(F)F (mixture of isomers) [Example 5-1, 2,2,2-Trifluoro-1-methylethyl(3R,4R and 3S,4S)-4-{4-carbamoyl-3-[(4-fluorophenyl)amino]-1H-pyrazol-1-yl}-3-cyanopiperidine-1-carboxylate] | – | 7.82 | 6.41 |
| CN1CCC(OC(=O)N2CC[C@@H](n3cc(C(N)=O)c(Nc4ccc(F)cc4)n3)[C@H](C#N)C2)CC1 (racemic) [Example 5-26, 1-methylpiperidin-4-yl (3R,4R and 3S,4S)-4-{4-carbamoyl-3-[(4-fluorophenyl)amino]-1H-pyrazol-1-yl}-3-cyanopiperidine-1-carboxylate] | – | 7.24 | < 5.83 |
| CC(OC(=O)N1CC[C@H](n2cc(C(N)=O)c(Nc3ccc(F)cc3)n2)[C@H](C#N)C1)C1CC1 (mixture of isomers) [Example 5-68, 1-cyclopropylethyl (3R,4S and 3S,4R)-4-{4-carbamoyl-3-[(4-fluorophenyl)amino]-1H-pyrazol-1-yl}-3-cyanopiperidine-1-carboxylate] | – | 6.36 | < 5.83 |
| N#C[C@@H]1CN(C(=O)OCCc2ccccc2)CC[C@H]1n1cc(C(N)=O)c(Nc2ccc(F)cc2)n1 (racemic) [Example 5-36, 2-phenylethyl (3R,4R and 3S,4S)-4-{4-carbamoyl-3-[(4-fluorophenyl)amino]-1H-pyrazol-1-yl}-3-cyanopiperidine-1-carboxylate] | – | 7.07 | 6.08 |
| N#C[C@@H]1CN(C(=O)OCCc2ccccc2)CC[C@@H]1n1cc(C(N)=O)c(Nc2ccc(F)cc2)n1 (racemic) [Example 5-48, 2-phenylethyl (3R,4S and 3S,4R)-4-{4-carbamoyl-3-[(4-fluorophenyl)amino]-1H-pyrazol-1-yl}-3-cyanopiperidine-1-carboxylate] | – | 6.39 | < 5.83 |
| N#C[C@H]1CCOC[C@@H]1n1cc(C(N)=O)c(Nc2cncc(F)c2)n1 (single isomer, unassigned) [Example 9-30, 1-[(3R,4S or 3S,4R)-4-cyanotetrahydro-2H-pyran-3-yl]-3-[(5-fluoropyridin-3-yl)amino]-1H-pyrazole-4-carboxamide] | – | 7.08 | 6.51 |
| N#C[C@@H]1CN(C(=O)OC2Cc3ccccc3C2)CC[C@H]1n1cc(C(N)=O)c(Nc2ccc(F)cc2)n1 (racemic) [Example 5-37, 2,3-dihydro-1H-inden-2-yl (3R,4R and 3S,4S)-4-{4-carbamoyl-3-[(4-fluorophenyl)amino]-1H-pyrazol-1-yl}-3-cyanopiperidine-1-carboxylate] | – | 7.27 | < 5.83 |
| N#C[C@@H]1CN(C(=O)OCCF)CC[C@@H]1n1cc(C(N)=O)c(Nc2ccc(F)cc2)n1 (racemic) [Example 5-58, 2-fluoroethyl (3R,4S and 3S,4R)-4-{4-carbamoyl-3-[(4-fluorophenyl)amino]-1H-pyrazol-1-yl}-3-cyanopiperidine-1-carboxylate] | – | 6.99 | 5.95 |

Stronger by pIC50 (JAK1), values ahead:

| pIC50 (JAK2; [ATP] […]) | pIC50 (JAK1) | pIC50 (JAK2; [ATP] 8.5 μM) | Structure (SMILES) |
| --- | --- | --- | --- |
| – | 8.05 | 6.45 | CN(C)CCOC(=O)N1CC[C@@H](C#N)C(n2cc(C(N)=O)c(Nc3ccc(F)cc3)n2)C1 (mixture of isomers) [Example 5-86, 2-(dimethylamino)ethyl (3S,4R and 3R,4S)-3-{4-carbamoyl-3-[(4-fluorophenyl)amino]-1H-pyrazol-1-yl}-4-cyanopiperidine-1-carboxylate] |
| – | 8.05 | 6.69 | COCCOC(=O)N1CC[C@@H](n2cc(C(N)=O)c(Nc3ccc(F)cc3)n2)[C@H](C#N)C1 (racemic) [Example 5-29, 2-methoxyethyl (3R,4R and 3S,4S)-4-{4-carbamoyl-3-[(4-fluorophenyl)amino]-1H-pyrazol-1-yl}-3-cyanopiperidine-1-carboxylate] |
| – | 8.22 | 7.68 | CC1(c2ccc(Nc3nn([C@@H]4COCC[C@H]4C#N)cc3C(N)=O)cc2)COC1 (single isomer, unassigned) [Example 9-26, 1-[(3S,4R or 3R,4S)-4-cyanotetrahydro-2H-pyran-3-yl]-3-{[4-(3-methyloxetan-3-yl)phenyl]amino}1H-pyrazole-4-carboxamide] |
| – | 8.40 | 7.12 | CC(C)COC(=O)N1CC[C@@H](C#N)C(n2cc(C(N)=O)c(Nc3ccc(F)cc3)n2)C1 (mixture of isomers) [Example 5-77, 2-methylpropyl (3S,4R and 3R,4S)-3-{4-carbamoyl-3-[(4-fluorophenyl)amino]-1H-pyrazol-1-yl}-4-cyanopiperidine-1-carboxylate] |
| – | 9.10 | 8.30 | N#C[C@H]1CCOC[C@@H]1n1cc(C(N)=O)c(Nc2ccc(F)nc2)n1 (single isomer, unassigned) [Example 9-29, 1-[(3R,4S or 3S,4R)-4-cyanotetrahydro-2H-pyran-3-yl]-3-[(6-fluoropyridin-3-yl)amino]-1H-pyrazole-4-carboxamide] |
| 8.10 | 9.22 | – | Cc1ncoc1CN1CC[C@@H](C#N)[C@H](n2cc(C(N)=O)c(Nc3ccc(F)cc3)n2)C1 [Example 7-2, 1-{(3S,4R, 3R,4S)-4-cyano-1-[(4-methyl-1,3-oxazol-5-yl)methyl]piperidin-3-yl}-3-[(4-fluorophenyl)amino]-1H-pyrazole-4-carboxamide] |
| 8.22 | 9.30 | – | C[C@]1(C#N)CS(=O)(=O)CC1n1cc(C(N)=O)c(Nc2ccc(F)cc2)n1 (stereo partly drawn) [Example 13-5, 1-((3S,4R or 3R4S)-4-cyano-4-methyl-1,1-dioxidotetrahydrothiophen-3-yl)-3-((4-fluorophenyl)amino)-1H-pyrazole-4-carboxamide] |
